Measured values reported in patent US7968526B2, “Antisense oligonucleotides directed to ribonucleotide reductase R2 and uses thereof in the treatment of cancer” (Lorus Therapeutics Inc., priority 2003, dated 2011).
Entries after “also recorded” stand apart in the source; their conditions may differ.

Tests used:
[1] = tested on: MDA-CDDP-S4 human in vivo-selected Cisplatin-resistant breast adenocarcinoma cells; experiment: MDA-CDDP-S4 Cisplatin-resistant breast adenocarcinoma, fat pad, SCID mice (2.3); parameters: species or system human cells in mice
Description: (§1) BxPC-3 is a gemcitabine resistant call line. […] Gemcitabine was administered intravenously every three days at a dose of 100 mg/kg. Antitumour activities were estimated by the inhibition of tumour volume, which was measured with caliper. Each point represents mean tumour volume calculated from 10 animals per experimental group. […] Hela S3 is a hydroxyurea resistant cell line. […] Hydroxyurea was administered intraperitoneally every day at a dose of 250 mg/kg for 10 days. Cisplatin was administered intravenously once a week for three weeks at a dose of 4 mg/kg. Antitumour activities were estimated by the inhibition of tumour volume, which was measured with caliper. Each point represents mean tumour volume calculated from 10 animals per experimental group. […] Cisplatin was administered intravenously once a week for three weeks at a dose of 4 mg/kg. Taxol was administered intravenously once a week for three weeks at a dose of 10 mg/kg. Antitumour activities were estimated by the inhibition of tumour volume, which was measured with caliper. Each point represents mean tumour volume calculated from 10 animals per experimental group. […] Taxol was administered i.p. once a week at a dose of 10 mg/kg. Antitumour activities were estimated by the inhibition of tumour volume (FIG. 12A), which was measured with calipers. Each point represents mean tumour volume calculated from 10 animals per experimental group. Animals were sacrificed and tumour weights taken at the end of the study (FIG. 12C). […] Cisplatin was administered intravenously once a week for four weeks at a dose of 4 mg/kg. Taxol was administered intravenously once a week for four weeks at a dose of 20 mg/kg. Antitumour activities were estimated by the inhibition of tumour volume, which was measured with caliper. Each point represents mean tumour volume calculated from 9-10 animals per experimental group. […] Cisplatin was administered intravenously once a week for four weeks at a dose of 4 mg/kg. Antitumour activities were estimated by the inhibition of tumour volume, which was measured with caliper. Each point represents mean tumour volume calculated from 10 animals per experimental group. At the end of the study the animals were sacrificed and tumours weighed. […] Taxol was administered i.p. once a week at a dose of 10 mg/kg. Anti-tumour activity was estimated by the inhibition of tumour volume, which was measured with caliper. Each point represents mean tumour volume calculated from 10 animals per experimental group. In addition animals were sacrificed and tumour weights taken at the end of the study. […] CPT-11 was administered i.p. for 5 days at a dose of 20 mg/kg/day. Antitumour activities were estimated by the inhibition of tumour volume, which was measured with caliper. Each point represents mean tumour volume calculated from 10 animals per experimental group. Tumour weights were measured after animals were sacrificed at the end of the treatment. These cells are not resistant to CPT-11 which was used as a positive control.

[2] = tested on: MDA-CDDP-S4 human in vivo-selected Cisplatin-resistant breast adenocarcinoma cells; experiment: MDA-CDDP-S4 Cisplatin-resistant breast adenocarcinoma, fat pad, CB-17 SCID mice, combination with Taxol (2.4); parameters: species or system human cells in mice; conditions: SEQ ID NO:1 10 mg/kg i.v. every other day, Taxol 10 mg/kg i.p. weekly; for Tumour weight as % of saline control: MDA-CDDP-S4 (breast), Cisplatin resistant, SCID
Description: as §1

[3] = tested on: glioblastoma-astrocytoma (U-87 MG); experiment: Human glioblastoma-astrocytoma tumour growth in mice; format: in vivo, human cells in mice
Description: Unless noted otherwise in this Example human tumour cell lines were purchased from the American Type Culture Collections (ATCC) (Rockville, Md.). Human colon adenocarcinoma (HT-29), non-small cell lung carcinoma (NCI-H460), melanoma (A2058), breast adenocarcinoma (MDA-MB-231), pancreatic carcinoma (AsPC-1 and SU.86.86), glioblastoma-astrocytoma (U-87 MG), renal carcinoma (A498 and Caki-1), ovarian carcinoma (SK-OV-3), cervical carcinoma (HeLa S3), prostate carcinoma (PC-3), bladder carcinoma (T24), Burkitt's lymphoma (Raji) and hepatocellular carcinoma (Hep G2) were maintained, according to ATCC recommendation, in α-MEM, RPMI1640, or McCoy's 5a medium (Invitrogen Canada Inc. Burlington, Ontario) supplemented with 10-20% fetal calf serum (FCS) at 37° C. in a humidified atmosphere containing 5% CO2. Normal human cell lines, WI-38 (human lung fibroblast) and HUVEC (human umbilical vein endothelial cells) and murine R3 (fibrosarcoma) and L (Ltk^− fibroblast) cells were maintained as mentioned above. […]
FIG. 29 summarizes the results of a statistical analysis of data compiled from a number of experiments in which the effect of SEQ ID NO:1 on tumour growth was assessed in human tumour cell xenografts in mice. […]

5′-GGCTAAATCGCTCCACCAAG-3′ (all phosphorothioate, sugars by position and methylation of C not given here) [SEQ ID NO: 1, fully phosphorothioated antisense oligonucleotide that hybridizes to the coding region of R2 mRNA]
Tumour weight as % of saline control ([1]; MDA-CDDP-S4 (breast), Cisplatin resistant, SCID, SEQ ID NO:1 10 mg/kg i.v. every other day 9 times, Taxol 10 mg/kg, Cisplatin 4 mg/kg i.v. weekly x3): 32% | Antitumour effect (FIG. 11) ([1]; MDA-CDDP-S4 Cisplatin-resistant, SCID mice, SEQ ID NO:1 10 mg/kg i.v. every other day, Cisplatin 4 mg/kg, Taxol 10 mg/kg i.v. weekly): significant reduction of tumour weight compared to saline control | Tumour weight as % of saline control ([2]; first of two printed values (study and repeat)): 18% | Tumour weight as % of saline control ([2]; second of two printed values (study and repeat)): 41% | Antitumour effect (FIG. 12) ([2]; MDA-CDDP-S4 Cisplatin-resistant, CB-17 SCID mice): significant reduction of tumour weight compared to saline control; also recorded: superior to the inhibitory effects observed with Taxol | Inhibition of tumour weight [3]: ~65%
